Paper PMC4702177, “Discovering new mTOR inhibitors for cancer treatment through virtual screening methods and in vitro assays” (Scientific Reports, 2016)
“Also recorded” adds a separate entry of the source.

What was measured:
[1] = tested on: caspase-3 activation and PARP cleavage in HeLa cells; assay: Western blot of apoptosis markers; assay type: cell-based, human; conditions: 24 h, compared with control
Description: To elucidate the mechanisms of cell death induced by 17, we analyzed the effect of 17 on nuclear morphology using Hoechst 33342 staining. […] This observation allowed for clear discrimination of treated cells from untreated non-apoptotic HeLa cells, which have a normal, round, and unpunctuated nucleus. […] The percentage of apoptotic HeLa cells were 6.5% and 7.7% at the concentrations of 2.74 and 5.48 μM, respectively (Fig. 6d). To further confirm the nuclear morphology observation, Western blotting was used to detect caspase-3 activation and PARP cleavage, two biochemical markers of apoptosis. […] The induction of apoptosis is positively correlated with the concentration of compound 17.
[…] Samples were prepared by lysing PBS-washed cells with RIPA buffer (Beyotime, Haimen, China) consisting of 1% Nonidet P-40, 0.5% sodium deoxycholate, 0.1% SDS, and 50 mM Tris-HCl, pH 7.4, supplemented with NaF, NaVO4, EDTA and a protease inhibitor cocktail (Roche). Proteins were subjected to SDS-PAGE gel electrophoresis and transferred onto a polyvinylidene difluoride membrane (Hybond-P; GE Healthcare Life Sciences, Piscataway, NJ). […] The densitometry of each band was quantified by FluorChem 8000 (AlphaInnotech, San Leandro, CA).

[2] = tested on: HeLa cells; assay: Cell cycle analysis by flow cytometry; assay type: cell-based, human; conditions: 2.74 and 5.48 μM, 24 hours
Description: To further explore the mechanism of cell growth inhibition by compound 17, we examined the effects of compound 17 on cell cycle distribution in HeLa cells using flow cytometry.
Cells cycle distribution was analyzed as previously described. In brief, HeLa cells (1.5 × 10^4/well) seeded in six-well plates were incubated with compound 17 for 24 h. Then, the cells were collected, washed twice with phosphate-buffered saline (PBS), and fixed in 70% cold ethanol at −20 °C overnight. Finally, the samples were stained with 50 μg/mL propidium iodide and 30 μg/mL of RNase A at 37 °C for 1 h. DNA content data were acquired using CELLQuest software on a flow cytometer (FACSCalibur; Becton Dickinson, Mountain View, CA, USA).

[3] = molecular target: AKT1 (PKB alpha) (Homo sapiens, UniProt P31749); assay: SelectScreen kinase profiling; assay type: biochemical; conditions: mean ± SD of triplicate
Excerpt: (§1) To characterize the kinase selectivity of compound 17, we profiled its ability to bind to a panel of 24 structurally related kinases using the SelectScreen Kinase Profiling Service (Life Technologies Corporation, Madison, WI).

[4] = molecular target: AKT2 (PKB beta) (Homo sapiens, UniProt P31751); assay: SelectScreen kinase profiling; assay type: biochemical; conditions: mean ± SD of triplicate
Excerpt: as §1

[5] = molecular target: AKT3 (PKB gamma) (Homo sapiens, UniProt Q9Y243); assay: SelectScreen kinase profiling; assay type: biochemical; conditions: mean ± SD of triplicate
Excerpt: as §1

[6] = molecular target: AMPK A1/B1/G1 (Homo sapiens, UniProt Q13131); assay: SelectScreen kinase profiling; assay type: biochemical; conditions: mean ± SD of triplicate
Excerpt: as §1

[7] = molecular target: AMPK A2/B1/G1 (Homo sapiens, UniProt P54646); assay: SelectScreen kinase profiling; assay type: biochemical; conditions: mean ± SD of triplicate
Excerpt: as §1

[8] = molecular target: CDK1/cyclin B (Homo sapiens, UniProt P06493); assay: SelectScreen kinase profiling; assay type: biochemical; conditions: mean ± SD of triplicate
Excerpt: as §1

[9] = molecular target: CDK2/cyclin A (Homo sapiens, UniProt P24941); assay: SelectScreen kinase profiling; assay type: biochemical; conditions: mean ± SD of triplicate
Excerpt: as §1

[10] = molecular target: DNA-PK (Homo sapiens, UniProt P78527); assay: SelectScreen kinase profiling; assay type: biochemical; conditions: mean ± SD of triplicate
Excerpt: as §1

[11] = molecular target: FRAP1 (mTOR) (Homo sapiens, UniProt P42345); assay: SelectScreen kinase profiling; assay type: biochemical; conditions: mean ± SD of triplicate
Excerpt: as §1

[12] = molecular target: IKBKB (IKK beta) (Homo sapiens, UniProt O14920); assay: SelectScreen kinase profiling; assay type: biochemical; conditions: mean ± SD of triplicate
Excerpt: as §1

[13] = molecular target: MARK1 (MARK) (Homo sapiens, UniProt Q9P0L2); assay: SelectScreen kinase profiling; assay type: biochemical; conditions: mean ± SD of triplicate
Excerpt: as §1

[14] = molecular target: PDK1 (Homo sapiens, UniProt O15530); assay: SelectScreen kinase profiling; assay type: biochemical; conditions: mean ± SD of triplicate
Excerpt: as §1

[15] = molecular target: PI4KB (PI4K beta) (Homo sapiens, UniProt Q9UBF8); assay: SelectScreen kinase profiling; assay type: biochemical; conditions: mean ± SD of triplicate
Excerpt: as §1

[16] = molecular target: PIK3C2A (PI3K-C2 alpha) (Homo sapiens, UniProt O00443); assay: SelectScreen kinase profiling; assay type: biochemical; conditions: mean ± SD of triplicate
Excerpt: as §1

[17] = molecular target: PIK3C2B (PI3K-C2 beta) (Homo sapiens, UniProt O00750); assay: SelectScreen kinase profiling; assay type: biochemical; conditions: mean ± SD of triplicate
Excerpt: as §1

[18] = molecular target: PIK3C3 (hVPS34) (Homo sapiens, UniProt Q8NEB9); assay: SelectScreen kinase profiling; assay type: biochemical; conditions: mean ± SD of triplicate
Excerpt: as §1

[19] = molecular target: PIK3CA/PIK3R1 (p110 alpha/p85 alpha) (Homo sapiens, UniProt P42336); assay: SelectScreen kinase profiling; assay type: biochemical; conditions: mean ± SD of triplicate
Excerpt: as §1

[20] = molecular target: PIK3CD/PIK3R1 (p110 delta/p85 alpha) (Homo sapiens, UniProt O00329); assay: SelectScreen kinase profiling; assay type: biochemical; conditions: mean ± SD of triplicate
Excerpt: as §1

[21] = molecular target: PIK3CG (p110 gamma) (Homo sapiens, UniProt P48736); assay: SelectScreen kinase profiling; assay type: biochemical; conditions: mean ± SD of triplicate
Excerpt: as §1

[22] = molecular target: PRKCA (PKC alpha) (Homo sapiens, UniProt P17252); assay: SelectScreen kinase profiling; assay type: biochemical; conditions: mean ± SD of triplicate
Excerpt: as §1

[23] = molecular target: PRKCB1 (PKC beta I) (Homo sapiens, UniProt P05771); assay: SelectScreen kinase profiling; assay type: biochemical; conditions: mean ± SD of triplicate
Excerpt: as §1

[24] = molecular target: PRKCB2 (PKC beta II) (Homo sapiens, UniProt P05771); assay: SelectScreen kinase profiling; assay type: biochemical; conditions: mean ± SD of triplicate
Excerpt: as §1

[25] = molecular target: PRKCD (PKC delta) (Homo sapiens, UniProt Q05655); assay: SelectScreen kinase profiling; assay type: biochemical; conditions: mean ± SD of triplicate
Excerpt: as §1

[26] = molecular target: RPS6KB1 (p70S6K) (Homo sapiens, UniProt P23443); assay: SelectScreen kinase profiling; assay type: biochemical; conditions: mean ± SD of triplicate
Excerpt: as §1

PI4KB (PI4K beta), sequence (Q9UBF8 whole entry): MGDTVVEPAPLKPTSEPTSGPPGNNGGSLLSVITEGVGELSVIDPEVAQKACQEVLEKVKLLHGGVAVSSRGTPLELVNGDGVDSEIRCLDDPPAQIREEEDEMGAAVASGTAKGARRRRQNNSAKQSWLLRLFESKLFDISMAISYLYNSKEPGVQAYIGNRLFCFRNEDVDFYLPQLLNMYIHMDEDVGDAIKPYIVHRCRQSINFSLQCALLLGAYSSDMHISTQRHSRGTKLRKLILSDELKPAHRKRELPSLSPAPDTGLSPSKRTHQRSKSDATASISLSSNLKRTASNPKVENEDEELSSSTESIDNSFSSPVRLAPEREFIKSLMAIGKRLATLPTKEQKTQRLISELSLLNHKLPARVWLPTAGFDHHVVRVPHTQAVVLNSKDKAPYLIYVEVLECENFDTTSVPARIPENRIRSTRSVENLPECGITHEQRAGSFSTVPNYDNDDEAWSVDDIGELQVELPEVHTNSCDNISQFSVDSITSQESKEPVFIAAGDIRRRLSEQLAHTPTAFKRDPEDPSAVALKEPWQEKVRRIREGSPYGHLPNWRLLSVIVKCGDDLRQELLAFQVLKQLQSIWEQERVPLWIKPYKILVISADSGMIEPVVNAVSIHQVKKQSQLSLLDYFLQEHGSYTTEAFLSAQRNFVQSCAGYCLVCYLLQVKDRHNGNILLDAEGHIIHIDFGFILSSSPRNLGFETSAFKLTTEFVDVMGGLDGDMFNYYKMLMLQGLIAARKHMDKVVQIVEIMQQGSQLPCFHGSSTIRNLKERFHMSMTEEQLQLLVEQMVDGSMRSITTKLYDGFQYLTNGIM
AKT3 (PKB gamma), sequence (Q9Y243 whole entry): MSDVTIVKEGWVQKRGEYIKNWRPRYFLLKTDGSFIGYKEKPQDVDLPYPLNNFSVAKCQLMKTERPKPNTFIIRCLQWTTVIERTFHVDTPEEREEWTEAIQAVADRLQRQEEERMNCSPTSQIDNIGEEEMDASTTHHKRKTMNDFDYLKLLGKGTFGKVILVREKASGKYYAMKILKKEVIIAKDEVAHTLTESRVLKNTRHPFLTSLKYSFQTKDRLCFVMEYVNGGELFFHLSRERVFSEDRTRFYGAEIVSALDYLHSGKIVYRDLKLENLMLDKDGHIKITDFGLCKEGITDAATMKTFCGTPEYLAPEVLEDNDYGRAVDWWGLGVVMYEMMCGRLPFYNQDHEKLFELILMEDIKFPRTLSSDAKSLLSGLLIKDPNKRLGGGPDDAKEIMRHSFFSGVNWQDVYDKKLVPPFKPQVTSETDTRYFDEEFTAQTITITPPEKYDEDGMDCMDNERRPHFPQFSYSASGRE
AMPK A2/B1/G1, sequence (P54646 whole entry): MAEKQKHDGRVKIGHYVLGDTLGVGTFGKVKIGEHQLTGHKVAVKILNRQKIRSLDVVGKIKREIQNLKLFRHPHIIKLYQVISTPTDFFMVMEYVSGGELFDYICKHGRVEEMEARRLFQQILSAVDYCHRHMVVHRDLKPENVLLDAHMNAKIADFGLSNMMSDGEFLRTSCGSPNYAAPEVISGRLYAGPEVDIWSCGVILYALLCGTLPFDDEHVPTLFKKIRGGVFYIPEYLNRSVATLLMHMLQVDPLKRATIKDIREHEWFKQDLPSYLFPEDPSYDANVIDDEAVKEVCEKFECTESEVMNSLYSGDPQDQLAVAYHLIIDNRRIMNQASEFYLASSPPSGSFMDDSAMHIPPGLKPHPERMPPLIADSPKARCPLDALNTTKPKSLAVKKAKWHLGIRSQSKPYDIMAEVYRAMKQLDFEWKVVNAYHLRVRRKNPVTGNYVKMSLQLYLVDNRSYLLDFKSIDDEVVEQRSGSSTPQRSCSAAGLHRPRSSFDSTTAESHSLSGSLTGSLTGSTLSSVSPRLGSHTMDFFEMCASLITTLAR
AMPK A2/B1/G1, sequence (Q9Y478 whole entry partner): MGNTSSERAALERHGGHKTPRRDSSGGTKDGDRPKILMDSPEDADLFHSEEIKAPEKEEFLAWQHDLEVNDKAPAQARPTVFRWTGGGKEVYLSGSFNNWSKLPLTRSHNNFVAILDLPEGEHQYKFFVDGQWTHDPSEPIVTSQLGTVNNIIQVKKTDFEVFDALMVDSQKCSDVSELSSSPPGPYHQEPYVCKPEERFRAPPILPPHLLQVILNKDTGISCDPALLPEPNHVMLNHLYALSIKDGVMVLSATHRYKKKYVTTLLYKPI
AMPK A2/B1/G1, sequence (P54619 whole entry partner): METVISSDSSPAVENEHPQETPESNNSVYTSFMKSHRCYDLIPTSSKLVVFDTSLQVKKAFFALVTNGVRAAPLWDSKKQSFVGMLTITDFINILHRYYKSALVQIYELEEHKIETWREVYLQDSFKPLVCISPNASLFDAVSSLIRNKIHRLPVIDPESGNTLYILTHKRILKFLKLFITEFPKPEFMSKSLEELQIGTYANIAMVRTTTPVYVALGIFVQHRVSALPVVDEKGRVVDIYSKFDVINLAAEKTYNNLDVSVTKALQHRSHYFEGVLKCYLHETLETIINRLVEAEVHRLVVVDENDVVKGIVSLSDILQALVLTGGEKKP
PDK1, sequence (O15530 whole entry): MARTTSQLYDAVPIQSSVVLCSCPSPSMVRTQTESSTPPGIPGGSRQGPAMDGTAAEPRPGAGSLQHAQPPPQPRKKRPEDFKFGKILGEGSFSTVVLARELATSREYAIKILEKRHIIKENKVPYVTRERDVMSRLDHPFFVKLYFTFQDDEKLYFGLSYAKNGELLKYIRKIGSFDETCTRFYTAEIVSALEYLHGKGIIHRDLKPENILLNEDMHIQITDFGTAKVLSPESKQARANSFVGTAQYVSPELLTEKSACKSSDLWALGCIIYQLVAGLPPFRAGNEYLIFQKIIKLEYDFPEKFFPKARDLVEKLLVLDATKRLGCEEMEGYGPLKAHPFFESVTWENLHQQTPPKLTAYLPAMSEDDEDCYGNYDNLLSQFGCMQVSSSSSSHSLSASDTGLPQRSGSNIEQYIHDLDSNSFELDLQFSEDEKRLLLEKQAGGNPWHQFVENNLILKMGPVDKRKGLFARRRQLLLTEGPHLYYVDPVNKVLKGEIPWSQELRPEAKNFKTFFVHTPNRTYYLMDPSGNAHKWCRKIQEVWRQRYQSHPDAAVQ
CDK1/cyclin B, sequence (P06493 whole entry): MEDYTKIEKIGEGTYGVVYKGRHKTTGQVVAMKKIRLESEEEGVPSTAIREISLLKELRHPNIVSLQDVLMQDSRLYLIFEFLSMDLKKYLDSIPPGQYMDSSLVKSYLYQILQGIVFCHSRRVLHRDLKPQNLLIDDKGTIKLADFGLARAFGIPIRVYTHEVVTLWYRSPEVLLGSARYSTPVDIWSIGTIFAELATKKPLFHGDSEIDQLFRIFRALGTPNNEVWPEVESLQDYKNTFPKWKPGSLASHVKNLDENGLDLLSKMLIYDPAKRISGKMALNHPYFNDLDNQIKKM
CDK1/cyclin B, sequence (P14635 whole entry partner): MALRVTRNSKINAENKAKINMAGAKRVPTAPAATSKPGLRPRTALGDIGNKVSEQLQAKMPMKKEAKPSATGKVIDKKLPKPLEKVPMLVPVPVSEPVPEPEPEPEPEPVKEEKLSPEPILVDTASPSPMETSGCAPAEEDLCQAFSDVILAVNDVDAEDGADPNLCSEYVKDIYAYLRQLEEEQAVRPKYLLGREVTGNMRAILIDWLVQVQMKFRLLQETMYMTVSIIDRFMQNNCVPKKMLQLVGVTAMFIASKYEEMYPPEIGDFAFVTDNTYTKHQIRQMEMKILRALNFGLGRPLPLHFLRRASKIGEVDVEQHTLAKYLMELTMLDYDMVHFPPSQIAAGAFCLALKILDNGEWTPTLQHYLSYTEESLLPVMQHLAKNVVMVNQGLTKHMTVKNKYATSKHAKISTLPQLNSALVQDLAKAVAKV
IKBKB (IKK beta), sequence (O14920 whole entry): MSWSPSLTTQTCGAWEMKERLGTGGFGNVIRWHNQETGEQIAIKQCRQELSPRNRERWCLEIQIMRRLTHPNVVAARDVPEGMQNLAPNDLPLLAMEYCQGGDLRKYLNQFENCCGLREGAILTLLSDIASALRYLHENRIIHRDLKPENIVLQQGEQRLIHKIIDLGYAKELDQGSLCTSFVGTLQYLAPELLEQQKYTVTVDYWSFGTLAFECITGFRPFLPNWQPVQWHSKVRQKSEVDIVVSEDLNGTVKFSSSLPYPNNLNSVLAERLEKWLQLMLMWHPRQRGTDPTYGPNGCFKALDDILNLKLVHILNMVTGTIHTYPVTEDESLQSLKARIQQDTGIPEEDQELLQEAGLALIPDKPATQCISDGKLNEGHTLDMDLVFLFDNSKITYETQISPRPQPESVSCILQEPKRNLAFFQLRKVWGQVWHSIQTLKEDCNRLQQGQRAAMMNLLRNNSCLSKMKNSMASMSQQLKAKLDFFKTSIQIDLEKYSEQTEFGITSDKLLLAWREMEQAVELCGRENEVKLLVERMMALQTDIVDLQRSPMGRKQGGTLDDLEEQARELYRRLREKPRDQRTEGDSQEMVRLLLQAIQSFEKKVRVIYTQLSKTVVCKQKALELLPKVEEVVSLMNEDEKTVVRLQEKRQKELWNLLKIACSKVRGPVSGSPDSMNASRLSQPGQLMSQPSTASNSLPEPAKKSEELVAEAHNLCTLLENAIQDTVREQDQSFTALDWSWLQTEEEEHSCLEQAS
AKT1 (PKB alpha), sequence (P31749 whole entry): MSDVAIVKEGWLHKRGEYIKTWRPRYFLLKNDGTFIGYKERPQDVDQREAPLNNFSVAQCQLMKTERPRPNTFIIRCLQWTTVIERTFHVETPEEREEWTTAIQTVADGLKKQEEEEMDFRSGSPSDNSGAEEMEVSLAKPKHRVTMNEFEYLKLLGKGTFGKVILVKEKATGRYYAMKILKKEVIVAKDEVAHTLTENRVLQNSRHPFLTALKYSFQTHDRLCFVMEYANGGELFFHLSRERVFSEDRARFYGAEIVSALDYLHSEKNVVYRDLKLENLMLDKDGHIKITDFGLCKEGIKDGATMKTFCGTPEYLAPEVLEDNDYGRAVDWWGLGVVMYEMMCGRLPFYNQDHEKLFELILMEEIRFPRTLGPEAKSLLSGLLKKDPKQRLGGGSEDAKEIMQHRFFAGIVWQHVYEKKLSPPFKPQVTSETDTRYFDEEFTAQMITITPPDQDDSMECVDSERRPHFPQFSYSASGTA

## Nc1nn2c(nc(N)c3c(N)n[nH]c32)c1/N=N/c1ccccc1 [Compound 17]
[1]
  levels of cleaved (activated) caspase-3 and PARP: markedly increased
[2]
  cell cycle distribution: arrests the cell cycle of HeLa at the G1/G0-phase; also recorded: induced an arrest of cell cycle at the G1/G0-phase
[3]
  inhibition at 10 µM: 22.7 ± 9.34%
[4]
  inhibition at 10 µM: 33.6 ± 3.23%
[5]
  inhibition at 10 µM: 11.7 ± 0.37%
[6]
  inhibition at 10 µM: 17 ± 3.47%
[7]
  inhibition at 10 µM: 33.8 ± 4.29%
[8]
  inhibition at 10 µM: 3.09 ± 2.31%
[9]
  inhibition at 10 µM: -1.54 ± 1.35%
[10]
  inhibition at 10 µM: 61.9 ± 6.43%
[11]
  inhibition at 10 µM: 16.9 ± 4.99%
[12]
  inhibition at 10 µM: 11.7 ± 1.62%
[13]
  inhibition at 10 µM: -12.2 ± 4.24%
[14]
  inhibition at 10 µM: 3.94 ± 3.24%
[15]
  inhibition at 10 µM: 31.8 ± 1.18%
[16]
  inhibition at 10 µM: 28.6 ± 1.96%
[17]
  inhibition at 10 µM: 39.3 ± 7.29%
[18]
  inhibition at 10 µM: -6.75 ± 8.78%
[19]
  inhibition at 10 µM: 56.4 ± 4.16%
[20]
  inhibition at 10 µM: 41.4 ± 0.63%
[21]
  inhibition at 10 µM: 40.9 ± 1.19%
[22]
  inhibition at 10 µM: 9.84 ± 3.05%
[23]
  inhibition at 10 µM: 9.54 ± 0.09%
[24]
  inhibition at 10 µM: 17.7 ± 4.98%
[25]
  inhibition at 10 µM: -10.5 ± 9.55%
[26]
  inhibition at 10 µM: -1.25 ± 1.53%
